Results: US11414387B2, “Oxoacridinyl acetic acid derivatives and methods of use” (Stingthera, Inc., priority 2017, dated 2022)

Experiments:
hSTING-CTD = hSTING-CTD (Homo sapiens (Human), UniProt Q86WV6); assay: Human STING protein FP competition concentration response assay; assay type: binding
Procedure: (§1) A validated STING ligand, such as c-di-GMP, which is labeled with a read-out signal (e.g., a fluorescence signal such as fluorescein), is mixed with STING-CTD (e.g., mouse STING-CTD or human STING-CTD) with or without the presence of a compound of the present application. Changes in the read-out signal are measured (e.g., by fluorescence anisotropy) to determine the binding of the compound to STING-CTD.
(§2) Fluorescein labeled c-di-GMP, a validated STING ligand, was mixed with recombinant hSTING-CTD in a homogenous assay format with or without the presence of a compound of the present application (titrated) in PBS in black 384-well plates (10 μL per well). The fluorescence anisotropy was determined on a PerkinElmer EnVisions multi-mode plate reader. The plate can be read immediately after mixing the reagents or after a few hours without change of signals.
• 1) hSTING (Supplier: HDB) • 2) 2′-Fluo-AHC-c-di GMP (BIOLOG #F009) • 3) 2′3′-cGAMP (BIOLOG #C161) • 4) DMXAA (InvivoGen #tlrl-dmx) • 5) DMSO (Sigma, #D5879-100 mL) • 6) 10×PBS(HDB #MCP-020) • 7) Assay plate, 384-well black plate, solid black bottom (Greiner #784076) • 8) Compound dilution intermediate plate, 384 LDV plate (Labcyte #LP-0200) • 9) Liquid handler, ECHO550 (Labcyte) • 10) Liquid handler, Bravo (Aglient) • 11) Reader, Envision (PerkinElmer) • 12) Centrifuge (Eppendorf) • 13) Multichannel Pipette (Raining) • 14) 10 ml Reservoir (Corning) • 15) 15 ml centrifuge tube (Corning) • 16) Adhesive Plate seals (BioRad) Compound Preparation • a) Containers of each compound were centrifuged at 1000 rpm for 5 min. • b) Compounds were dissolved in DMSO at 30 mM. • c) Compounds were sufficiently vortexed, and centrifuged at 1000 rpm for 1 min. • d) 16 uL of the compound solution was transferred into a LDV Compound Plate. • e) 2-fold serial dilutions of the compound solution were made with DMSO, and 14 concentrations were made in the 384-well LDV Compound Plate. • f) The LDV plate was spun at 1000 rpm for 60 sec and sealed with foil (stored at −20° C. if not used immediately). • g) 335 nL of each compound from the LDV Compound Plate was transferred to Assay Plate (ECHO550). Probe Preparation • a) 200 uM probe stock (2′-Fluo-AHC-c-diGMP) was diluted by ddH2O to 6 uM working concentration. • b) 10-12 uL 6 uM working solution of probe was transferred into the LDV plate. • c) 50 nL per well 6 uM working solution of probe was transferred from the LDV plate to each well of the empty Assay Plate (Greiner 784076) by ECHO550 Buffer mode. • d) Probe final concentration was 30 nM when assay system was 10 uL. • e) The Assay Plate was spun at 1000 rpm for 1 min. Compound Addition • a) After the LDV Compound Plate was prepared, 335 nL compound (ECHO550 DMSO mode) was transferred from the LDV Compound Plate into the Assay Plate (Greiner 784076) containing 50 nL probe in each well according to the Assay Plate layout. • b) DMSO final concentration was 3.35% when assay system was 10 uL. • c) The Assay Plate was spun at 1000 rpm for 1 min. Protein Addition • a) Aliquot of hSTING protein was thawed on ice, briefly to generate uniform solution. • b) 55 uM stock protein was diluted in 1×PBS assay buffer to generate 10 uM final solutions. • c) For test compound and ZPE wells, 10 μL per well of 10 uM protein solutions was added into the Assay Plate containing both the probe and test compounds or DMSO using multichannel pipette. • d) For HPE wells, 10 μL/well of 1×PBS assay buffer instead of protein was added into the Assay Plate containing both the probe and DMSO using multichannel pipette. • e) The Assay Plate was spun at 1000 rpm for Imin. • f) The Assay Plate was incubated at r.t. for 10-20 min.
(§3) The EnVision plate reader was used to record the FA value of each well immediately after mixing the reagents or after a few hours without change of signals.
(§4) The raw data and calculated data (Fluorescence anisotropy (FA)) was exported from the EnVision reader. […]

mSTING-CTD = mSTING-CTD (Mus musculus (Mouse), UniProt Q3TBT3); assay: Mouse STING protein FP competition concentration response assay; assay type: binding
Procedure: as §1
as §2, with “c-di-GMP” for “c-di-GMP, a validated STING ligand,”, “mSTING-CTD” for “recombinant hSTING-CTD in a homogenous assay format”, “application” for “application (titrated)”
• 1) 6×his-sumo-mSTING (Supplier: HDB) • 2) 2′-Fluo-AHC-c-di GMP (BIOLOG #F009) • 3) 23-cGAMP (BIOLOG #C161) • 4) DMXAA (InvivoGen #tlrl-dmx) • 5) DMSO (Sigma. #D5879-100 mL) • 6) 10×PBS(HDB #MCP-020) • 7) Assay plate, 384-well black plate, solid black bottom (Greiner #784076) • 8) Compound dilution intermediate plate, 384 LDV plate (Labcyte #LP-0200) • 9) Liquid handler, ECHO550 (Labcyte) • 10) Liquid handler, Bravo (Aglient) • 11) Reader, Envision (PerkinElmer) • 12) Centrifuge (Eppendorf) • 13) Multichannel Pipette (Raining) • 14) 10 ml Reservoir (Corning) • 15) 15 ml centrifuge tube (Corning) • 16) Adhesive Plate seals (BioRad) Compound Preparation • a) Containers of each compound were centrifuged at 1000 rpm for 5 min. • b) Compounds were dissolved in DMSO at 30 mM. • c) Compounds were sufficiently vortexed, and centrifuged at 1000 rpm for 1 min. • d) 16 uL of the compound solution was transferred into a LDV Compound Plate. • e) 2-fold serial dilutions of the compound solution were made with DMSO, and 14 concentrations were made in the 384-well LDV Compound Plate. • f) The LDV plate was spun at 1000 rpm for 60 sec and sealed with foil (stored at −20° C. if not used immediately). • g) 335 nL of each compound from the LDV Compound Plate was transferred to Assay Plate (ECHO550). Probe Preparation • a) 200 uM probe stock (2′-Fluo-AHC-c-diGMP) was diluted by dd2O to 6 uM working concentration. • b) 10-12 uL 6 uM working solution of probe was transferred into the LDV plate. • c) 50 nL per well 6 uM working solution of probe was transferred from the LDV plate to each well of the empty Assay Plate (Greiner 784076) by ECHO550 Buffer mode. • d) Probe final concentration was 30 nM when assay system was 10 uL. • e) The Assay Plate was spun at 1000 rpm for 1 min. Compound Addition • a) After the LDV Compound Plate was prepared, 100 nL compound (ECHO550 DMSO mode) was transferred from the LDV Compound Plate into the Assay Plate (Greiner 784076) containing 50 nL probe in each well according to the Assay Plate layout. • b) DMSO final concentration was 1% when assay system was 10 uL. • c) The Assay Plate was spun at 1000 rpm for 1 min. Protein Addition • a) Aliquot of 6×his-sumo-mSTING protein was thawed on ice, briefly to generate uniform solution. • b) 66 uM stock protein was diluted in 1×PBS assay buffer to generate 8 uM final solutions. • c) For test compound and ZPE wells, 10 μL per well of 8 uM protein solutions was added into the Assay Plate containing both the probe and test compounds or DMSO using multichannel pipette. • d) For HPE wells, 10 µL/well of 1×PBS assay buffer instead of protein was added into the Assay Plate containing both the probe and DMSO using multichannel pipette. • e) The Assay Plate was spun at 1000 rpm for 1 min. • f) The Assay Plate was incubated at r.t. for 10-20 min.
as §3, §4

Sequence of hSTING-CTD (Q86WV6 135-379): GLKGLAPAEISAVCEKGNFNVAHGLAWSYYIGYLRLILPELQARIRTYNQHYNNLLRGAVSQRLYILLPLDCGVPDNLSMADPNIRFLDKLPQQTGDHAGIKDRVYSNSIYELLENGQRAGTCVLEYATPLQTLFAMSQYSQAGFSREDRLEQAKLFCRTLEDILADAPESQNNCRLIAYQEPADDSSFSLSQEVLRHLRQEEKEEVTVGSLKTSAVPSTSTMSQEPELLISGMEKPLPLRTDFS
Sequence of mSTING-CTD (Q3TBT3 134-378): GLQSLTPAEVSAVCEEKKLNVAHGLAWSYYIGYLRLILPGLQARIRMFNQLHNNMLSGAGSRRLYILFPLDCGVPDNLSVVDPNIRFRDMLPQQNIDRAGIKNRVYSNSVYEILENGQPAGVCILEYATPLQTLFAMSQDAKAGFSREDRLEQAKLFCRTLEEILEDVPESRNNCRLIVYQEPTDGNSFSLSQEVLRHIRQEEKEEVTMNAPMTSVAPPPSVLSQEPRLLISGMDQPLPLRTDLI

SMILES: Cc1c(C2=CCCCC2)ccc2c(=O)c3ccccc3n(CC(=O)O)c12 [Compound 28]
- IC50 (hSTING-CTD): 500 to 1000 µM
- IC50 (mSTING-CTD): 10 to 50 µM

SMILES: Cc1ccc2c(=O)c3ccccc3n(CC(=O)O)c2c1 [Compound 6]
- IC50 (mSTING-CTD): 10 to 50 µM

SMILES: O=C(O)Cn1c2ccccc2c(=O)c2ccc(F)cc21 [Compound 4]
- IC50 (mSTING-CTD): 10 to 50 µM

SMILES: O=C(O)Cn1c2ccccc2c(=O)c2ccc(Cl)cc21 [Compound 5]
- IC50 (mSTING-CTD): 10 to 50 µM

SMILES: Cc1ccc2c(=O)c3ccc(C)cc3n(CC(=O)O)c2c1 [Compound 15]
- IC50 (hSTING-CTD): > 1000 µM
- IC50 (mSTING-CTD): 10 to 50 µM

SMILES: O=C(O)Cn1c2ccccc2c(=O)c2c(Br)cccc21 [Compound 20]
- IC50 (mSTING-CTD): 50 to 100 µM

SMILES: Cc1ccc2c(=O)c3ccc(Cl)cc3n(CC(=O)O)c2c1 [Compound 17]
- IC50 (hSTING-CTD): 500 to 1000 µM
- IC50 (mSTING-CTD): 10 to 50 µM

SMILES: Cc1ccc2c(=O)c3ccc(F)cc3n(CC(=O)O)c2c1 [Compound 33]
- IC50 (mSTING-CTD): 10 to 50 µM

SMILES: O=C(O)Cn1c2cc(N3CCOCC3)ccc2c(=O)c2ccc(Cl)c(Cl)c21 [Compound 60]
- IC50 (hSTING-CTD): < 100 µM
- IC50 (mSTING-CTD): 10 to 50 µM

SMILES: CN(C)c1ccc2c(=O)c3ccc(Cl)c(Cl)c3n(CC(=O)O)c2c1 [Compound 71]
- IC50 (hSTING-CTD): 100 to 500 µM
- IC50 (mSTING-CTD): 10 to 50 µM

SMILES: O=C(O)Cn1c2ccccc2c(=O)c2ccc3c(c21)CCCC3 [Compound 9]
- IC50 (hSTING-CTD): 500 to 1000 µM
- IC50 (mSTING-CTD): < 10 µM

SMILES: O=C(O)Cn1c2cc(NC3CCCCC3)ccc2c(=O)c2ccc(Cl)c(Cl)c21 [Compound 59]
- IC50 (hSTING-CTD): < 100 µM
- IC50 (mSTING-CTD): 10 to 50 µM

SMILES: COc1ccc2c(=O)c3ccc(C)cc3n(CC(=O)O)c2c1 [Compound 34]
- IC50 (hSTING-CTD): > 1000 µM
- IC50 (mSTING-CTD): 10 to 50 µM

SMILES: O=C(O)Cn1c2ccccc2c(=O)c2c(F)cccc21 [Compound 1]
- IC50 (mSTING-CTD): 50 to 100 µM

SMILES: Cc1ccc2c(=O)c3ccc(Cl)c(Cl)c3n(CC(=O)O)c2c1 [Compound 29]
- IC50 (hSTING-CTD): 100 to 500 µM
- IC50 (mSTING-CTD): 10 to 50 µM

SMILES: O=C(O)Cn1c2ccccc2c(=O)c2cccc(Cl)c21 [Compound 8]
- IC50 (hSTING-CTD): > 1000 µM
- IC50 (mSTING-CTD): 10 to 50 µM

SMILES: O=C(O)Cn1c2ccccc2c(=O)c2cc(Br)ccc21 [Compound 21]
- IC50 (mSTING-CTD): > 100 µM

SMILES: O=C(O)Cn1c2ccccc2c(=O)c2ccc(CCc3ccccc3)cc21 [Compound 26]
- IC50 (hSTING-CTD): 500 to 1000 µM
- IC50 (mSTING-CTD): < 10 µM

SMILES: O=C(O)Cn1c2cc(N3CCCCC3)ccc2c(=O)c2ccc(Cl)c(Cl)c21 [Compound 61]
- IC50 (hSTING-CTD): < 100 µM
- IC50 (mSTING-CTD): 10 to 50 µM

SMILES: CC1(C)CCC=C(c2ccc3c(c2)c(=O)c2ccc(Cl)c(Cl)c2n3CC(=O)O)C1 [Compound 67]
- IC50 (hSTING-CTD): 500 to 1000 µM
- IC50 (mSTING-CTD): > 100 µM
